System: Echinochloa crus-galli
Assay: Test Example 1: herbicidal effect test by treatment of rice paddy soil (immediately after seeding)
Format: in vivo
Conditions: 120 g/10a active ingredient, dry weight vs untreated area, 14 days after treatment
Outline: (§1)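 Pre-emergence paddy water application, 120 g a.i./10 ares, applied immediately post-seeding into ~3 cm flood; glasshouse; duplicate pots; dry weight at 14 d → % inhibition = (1 − treated/untreated) × 100.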

CCC(=O)N(c1ccccc1Cc1c(C)n(C(C)(C)C)oc1=O)S(=O)(=O)C(F)(F)F [Compound 1-315] and Cc1c(Cc2ccccc2N(C(=O)C2CC2)S(=O)(=O)C(F)(F)F)c(=O)on1CC(C)(C)C [Compound 1-407] are the same in “Herbicidal rate (%) Echinochloa crus-galli” value: 90% for the first, 90% for the second.

With CCCC(CC)n1oc(=O)c(Cc2ccccc2NS(=O)(=O)C(F)(F)F)c1C (stereo not drawn) [Compound 1-110] the “Herbicidal rate (%) Echinochloa crus-galli” value was 100%.

System: Scirpus juncoides
Assay: as above
Format: in vivo
Conditions: 120 g/10a active ingredient, dry weight vs untreated area, 14 days after treatment
Outline: as §1

CCC(=O)N(c1ccccc1Cc1c(C)n(C(C)(C)C)oc1=O)S(=O)(=O)C(F)(F)F [Compound 1-315] and Cc1c(Cc2ccccc2N(C(=O)C2CC2)S(=O)(=O)C(F)(F)F)c(=O)on1CC(C)(C)C [Compound 1-407] are the same in “Herbicidal rate (%) Scirpus juncoides” value: 90% for the first, 90% for the second.

For CCCC(CC)n1oc(=O)c(Cc2ccccc2NS(=O)(=O)C(F)(F)F)c1C (stereo not drawn) [Compound 1-110], the “Herbicidal rate (%) Scirpus juncoides” value was 100%.

System: broad leaf weeds (Lindernia pyxidaria and Monochoria vaginalis)
Assay: as above
Format: in vivo
Conditions: Lindernia pyxidaria, 120 g/10a active ingredient, dry weight vs untreated area, 14 days after treatment
Outline: as §1

CCC(=O)N(c1ccccc1Cc1c(C)n(C(C)(C)C)oc1=O)S(=O)(=O)C(F)(F)F [Compound 1-315] and Cc1c(Cc2ccccc2N(C(=O)C2CC2)S(=O)(=O)C(F)(F)F)c(=O)on1CC(C)(C)C [Compound 1-407] are the same in “Herbicidal rate (%) Lindernia pyxidaria” value: 90% for the first, 90% for the second.

CCCC(CC)n1oc(=O)c(Cc2ccccc2NS(=O)(=O)C(F)(F)F)c1C (stereo not drawn) [Compound 1-110] was tested, and the “Herbicidal rate (%) Lindernia pyxidaria” value was 100%.

Same assay, conditions: Monochoria vaginalis, 120 g/10a active ingredient, dry weight vs untreated area, 14 days after treatment

CCC(=O)N(c1ccccc1Cc1c(C)n(C(C)(C)C)oc1=O)S(=O)(=O)C(F)(F)F [Compound 1-315] and Cc1c(Cc2ccccc2N(C(=O)C2CC2)S(=O)(=O)C(F)(F)F)c(=O)on1CC(C)(C)C [Compound 1-407] are the same in “Herbicidal rate (%) Monochoria vaginalis” value: 90% for the first, 90% for the second.

In the case of CCCC(CC)n1oc(=O)c(Cc2ccccc2NS(=O)(=O)C(F)(F)F)c1C (stereo not drawn) [Compound 1-110], the “Herbicidal rate (%) Monochoria vaginalis” value is reported as 100%.

System: Echinochloa crus-galli
Assay: Test Example 2: herbicidal effect test by treatment during growing period in paddy rice cultivation (seven days after seeding)
Format: in vivo
Conditions: 120 g/10a active ingredient, assessed 14 days after treatment, dry weight vs untreated area
Outline: (§2)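 Seeds sown 0–1 cm deep in puddled, fertilised paddy soil with about 3 cm standing water in a glass greenhouse. Diluted emulsion dropped into the water seven days after seeding at 120 g active ingredient per 10 ares. Herbicidal rate (%) from mean dry weight vs untreated, duplicate, 14 days after treatment.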

CCC(=O)N(c1ccccc1Cc1c(C)n(C(C)(C)C)oc1=O)S(=O)(=O)C(F)(F)F [Compound 1-315] and Cc1c(Cc2ccccc2N(C(=O)C2CC2)S(=O)(=O)C(F)(F)F)c(=O)on1CC(C)(C)C [Compound 1-407] are the same in “Herbicidal rate (%) Echinochloa crus-galli” value: 90% for the first, 90% for the second.

With CCCC(CC)n1oc(=O)c(Cc2ccccc2NS(=O)(=O)C(F)(F)F)c1C (stereo not drawn) [Compound 1-110] the “Herbicidal rate (%) Echinochloa crus-galli” value was 100%.

System: Scirpus juncoides
Assay: as above
Format: in vivo
Conditions: 120 g/10a active ingredient, assessed 14 days after treatment, dry weight vs untreated area
Outline: as §2

CCC(=O)N(c1ccccc1Cc1c(C)n(C(C)(C)C)oc1=O)S(=O)(=O)C(F)(F)F [Compound 1-315] and Cc1c(Cc2ccccc2N(C(=O)C2CC2)S(=O)(=O)C(F)(F)F)c(=O)on1CC(C)(C)C [Compound 1-407] are the same in “Herbicidal rate (%) Scirpus juncoides” value: 90% for the first, 90% for the second.

For CCCC(CC)n1oc(=O)c(Cc2ccccc2NS(=O)(=O)C(F)(F)F)c1C (stereo not drawn) [Compound 1-110], the “Herbicidal rate (%) Scirpus juncoides” value was 80%.

System: broad leaf weeds (Lindernia pyxidaria and Monochoria vaginalis)
Assay: as above
Format: in vivo
Conditions: Lindernia pyxidaria, 120 g/10a active ingredient, assessed 14 days after treatment, dry weight vs untreated area
Outline: as §2

CCC(=O)N(c1ccccc1Cc1c(C)n(C(C)(C)C)oc1=O)S(=O)(=O)C(F)(F)F [Compound 1-315] and Cc1c(Cc2ccccc2N(C(=O)C2CC2)S(=O)(=O)C(F)(F)F)c(=O)on1CC(C)(C)C [Compound 1-407] are the same in “Herbicidal rate (%) Lindernia pyxidaria” value: 90% for the first, 90% for the second.

In the case of CCCC(CC)n1oc(=O)c(Cc2ccccc2NS(=O)(=O)C(F)(F)F)c1C (stereo not drawn) [Compound 1-110], the “Herbicidal rate (%) Lindernia pyxidaria” value is reported as 80%.

Same assay, conditions: Monochoria vaginalis, 120 g/10a active ingredient, assessed 14 days after treatment, dry weight vs untreated area

CCC(=O)N(c1ccccc1Cc1c(C)n(C(C)(C)C)oc1=O)S(=O)(=O)C(F)(F)F [Compound 1-315] and Cc1c(Cc2ccccc2N(C(=O)C2CC2)S(=O)(=O)C(F)(F)F)c(=O)on1CC(C)(C)C [Compound 1-407] are the same in “Herbicidal rate (%) Monochoria vaginalis” value: 90% for the first, 90% for the second.

For CCCC(CC)n1oc(=O)c(Cc2ccccc2NS(=O)(=O)C(F)(F)F)c1C (stereo not drawn) [Compound 1-110], the “Herbicidal rate (%) Monochoria vaginalis” value was 100%.

System: Amaranthus viridis
Assay: Test Example 3: herbicidal effect test by treatment of dry field farming soil (one day after seeding)
Format: in vivo
Conditions: 120 g/10a active ingredient, evaluated 14 days after treatment
Outline: (§3)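 Alluvial dry-field soil in pots, top 1 cm mixed with 20 seeds per weed species. One day after seeding, the water-diluted emulsion was sprayed onto the soil surface at 100 L per 10 ares (120 g active ingredient per 10 ares). Duplicate pots; herbicidal rate (%) from plant dry weight versus untreated, 14 days after treatment.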

CCC(=O)N(c1ccccc1Cc1c(C)n(C(C)(C)C)oc1=O)S(=O)(=O)C(F)(F)F [Compound 1-315] and Cc1c(Cc2ccccc2N(C(=O)C2CC2)S(=O)(=O)C(F)(F)F)c(=O)on1CC(C)(C)C [Compound 1-407] are the same in “herbicidal rate, Amaranthus viridis” value: 90% for the first, 90% for the second.

With CCCC(CC)n1oc(=O)c(Cc2ccccc2NS(=O)(=O)C(F)(F)F)c1C (stereo not drawn) [Compound 1-110] the “herbicidal rate, Amaranthus viridis” value was 80%.

System: Chenopodium album
Assay: as above
Format: in vivo
Conditions: 120 g/10a active ingredient, evaluated 14 days after treatment
Outline: as §3

CCC(=O)N(c1ccccc1Cc1c(C)n(C(C)(C)C)oc1=O)S(=O)(=O)C(F)(F)F [Compound 1-315] and Cc1c(Cc2ccccc2N(C(=O)C2CC2)S(=O)(=O)C(F)(F)F)c(=O)on1CC(C)(C)C [Compound 1-407] are the same in “herbicidal rate, Chenopodium album” value: 90% for the first, 90% for the second.

In the case of CCCC(CC)n1oc(=O)c(Cc2ccccc2NS(=O)(=O)C(F)(F)F)c1C (stereo not drawn) [Compound 1-110], the “herbicidal rate, Chenopodium album” value is reported as 80%.

System: Echinochloa crus-galli
Assay: as above
Format: in vivo
Conditions: 120 g/10a active ingredient, evaluated 14 days after treatment
Outline: as §3

CCC(=O)N(c1ccccc1Cc1c(C)n(C(C)(C)C)oc1=O)S(=O)(=O)C(F)(F)F [Compound 1-315] and Cc1c(Cc2ccccc2N(C(=O)C2CC2)S(=O)(=O)C(F)(F)F)c(=O)on1CC(C)(C)C [Compound 1-407] are the same in “herbicidal rate, Echinochloa crus-galli” value: 90% for the first, 90% for the second.

For CCCC(CC)n1oc(=O)c(Cc2ccccc2NS(=O)(=O)C(F)(F)F)c1C (stereo not drawn) [Compound 1-110], the “herbicidal rate, Echinochloa crus-galli” value was 90%.

System: southern crabgrass
Assay: as above
Format: in vivo
Conditions: 120 g/10a active ingredient, evaluated 14 days after treatment
Outline: as §3

CCC(=O)N(c1ccccc1Cc1c(C)n(C(C)(C)C)oc1=O)S(=O)(=O)C(F)(F)F [Compound 1-315] and Cc1c(Cc2ccccc2N(C(=O)C2CC2)S(=O)(=O)C(F)(F)F)c(=O)on1CC(C)(C)C [Compound 1-407] are the same in “herbicidal rate, southern crabgrass” value: 90% for the first, 90% for the second.

CCCC(CC)n1oc(=O)c(Cc2ccccc2NS(=O)(=O)C(F)(F)F)c1C (stereo not drawn) [Compound 1-110] was tested, and the “herbicidal rate, southern crabgrass” value was 90%.

System: Amaranthus viridis
Assay: Test Example 4: herbicidal effect test by treatment of leave and stem in dry field farming (seven days after seeding)
Format: in vivo
Conditions: 120 g/10a active ingredient; emulsion sprayed seven days after seeding; evaluated 14 days after treatment
Outline: (§4)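 Weeds were seeded at 20 seeds per species into the top 1 cm of alluvial upland soil in pots, then sprayed 7 days after seeding with water-diluted emulsifiable concentrate at 100 L/10 a, giving 120 g active ingredient/10 a. Duplicate pots; herbicidal rate (%) was 14 days post-treatment, from dry weight versus untreated.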

CCC(=O)N(c1ccccc1Cc1c(C)n(C(C)(C)C)oc1=O)S(=O)(=O)C(F)(F)F [Compound 1-315] and Cc1c(Cc2ccccc2N(C(=O)C2CC2)S(=O)(=O)C(F)(F)F)c(=O)on1CC(C)(C)C [Compound 1-407] are the same in “herbicidal effect (herbicidal rate), Amaranthus viridis” value: 40% for the first, 40% for the second.

CCCC(CC)n1oc(=O)c(Cc2ccccc2NS(=O)(=O)C(F)(F)F)c1C (stereo not drawn) [Compound 1-110] was tested, and the “herbicidal effect (herbicidal rate), Amaranthus viridis” value was 60%.

System: Chenopodium album
Assay: as above
Format: in vivo
Conditions: 120 g/10a active ingredient; emulsion sprayed seven days after seeding; evaluated 14 days after treatment
Outline: as §4

CCC(=O)N(c1ccccc1Cc1c(C)n(C(C)(C)C)oc1=O)S(=O)(=O)C(F)(F)F [Compound 1-315] and Cc1c(Cc2ccccc2N(C(=O)C2CC2)S(=O)(=O)C(F)(F)F)c(=O)on1CC(C)(C)C [Compound 1-407] are the same in “herbicidal effect (herbicidal rate), Chenopodium album” value: 40% for the first, 40% for the second.

For CCCC(CC)n1oc(=O)c(Cc2ccccc2NS(=O)(=O)C(F)(F)F)c1C (stereo not drawn) [Compound 1-110], the “herbicidal effect (herbicidal rate), Chenopodium album” value was 50%.

System: Echinochloa crus-galli
Assay: as above
Format: in vivo
Conditions: 120 g/10a active ingredient; emulsion sprayed seven days after seeding; evaluated 14 days after treatment
Outline: as §4

CCC(=O)N(c1ccccc1Cc1c(C)n(C(C)(C)C)oc1=O)S(=O)(=O)C(F)(F)F [Compound 1-315] and Cc1c(Cc2ccccc2N(C(=O)C2CC2)S(=O)(=O)C(F)(F)F)c(=O)on1CC(C)(C)C [Compound 1-407] are the same in “herbicidal effect (herbicidal rate), Echinochloa crus-galli” value: 90% for the first, 90% for the second.

CCCC(CC)n1oc(=O)c(Cc2ccccc2NS(=O)(=O)C(F)(F)F)c1C (stereo not drawn) [Compound 1-110] was tested, and the “herbicidal effect (herbicidal rate), Echinochloa crus-galli” value was 90%.

System: southern crabgrass
Assay: as above
Format: in vivo
Conditions: 120 g/10a active ingredient; emulsion sprayed seven days after seeding; evaluated 14 days after treatment
Outline: as §4

CCC(=O)N(c1ccccc1Cc1c(C)n(C(C)(C)C)oc1=O)S(=O)(=O)C(F)(F)F [Compound 1-315] and Cc1c(Cc2ccccc2N(C(=O)C2CC2)S(=O)(=O)C(F)(F)F)c(=O)on1CC(C)(C)C [Compound 1-407] are the same in “herbicidal effect (herbicidal rate), southern crabgrass” value: 90% for the first, 90% for the second.

With CCCC(CC)n1oc(=O)c(Cc2ccccc2NS(=O)(=O)C(F)(F)F)c1C (stereo not drawn) [Compound 1-110] the “herbicidal effect (herbicidal rate), southern crabgrass” value was 90%.
